Reference: US20170071922A1, “ARTIFICIAL SKIN” (Shiseido Company, Ltd., priority 2010, published 2017)

System: skin model (EFT-400, MatTeK)
Assay: Electron microscope observation of skin model cultured with MMP inhibitor and/or heparanase inhibitor
Format: cell-based, human
Conditions: electron micrographs; result in words
Experimental: A skin model (EFT-400, MatTeK) was cultured in a specialized medium (EFT-400-ASY, MatTeK). Dimethylsulfoxide (DMSO) and ethanol were added to the specialized medium to a final concentration of 0.1% to serve as a control group, 50 mM 1-[4-(1H-benzoimidazol-2-yl)-phenyl]-3-[4-(1H-benzoimidazol-2-yl)-phenyl]-urea (DMSO solvent) was added to the specialized medium to a final concentration of 50 μM to serve as a heparanase inhibitor group, 10 mM N-hydroxy-2-[[(4-methoxyphenyl)sulfonyl] (3-picolyl)amino]-3-methylbutanamide hydrochloride (CGS27023A, ethanol solvent) was added to the specialized medium to a final concentration of 10 μM to serve as an MMP inhibitor group, and 50 mM 1-[4-(1H-benzoimidazol-2-yl)-phenyl]-3-[4-(1H-benzoimidazol-2-yl)-phenyl]-urea (DMSO solvent) and 10 mM CGS27023A (ethanol solvent) were added to the specialized medium to a final concentration of 50 μM and 10 μM, respectively, to serve as a heparanase inhibitor+MMP inhibitor group, followed by culturing.
The aforementioned skin model was cut in half after culturing, fixed with Zamboni's fixative and post-fixed with osmic acid, followed by embedding in resin in accordance with established methods. Tissues were observed by preparing ultra-thin sections and staining with uranyl acetate followed by observing with an electron microscope (JEM-1230, JEOL). […]

| Structure (SMILES) | fibroblasts present in dermis directly beneath basement membrane (FIG. 2) |
| --- | --- |
| COc1ccc(S(=O)(=O)N(Cc2cccnc2)C(C(=O)NO)C(C)C)cc1.Cl (centres unmarked) [Group A, N-hydroxy-2-[[(4-methoxyphenyl)sulfonyl](3-picolyl)amino]-3-methylbutanamide hydrochloride] | normal fibroblasts |
| O=C(Nc1ccc(-c2nc3ccccc3[nH]2)cc1)Nc1ccc(-c2nc3ccccc3[nH]2)cc1 [Group B, 1-[4-(1H-benzoimidazol-2-yl)-phenyl]-3-[4-(1H-benzoimidazol-2-yl)-phenyl]-urea] | normal fibroblasts |
